Measured values from patent US20160263131A1, “TREATMENT OF HEPATIC FIBROSIS USING AN INHIBITOR OF CBP/CATENIN” (priority 2013, published 2016).

Columns and labels:
NASH mice [1] = assay: Sirius red staining, fibrosis area in liver of NASH mice; assay type: in vivo, C57BL/6J mice; conditions: for Sirius red-positive area (fibrosis area): NASH mice, 13 weeks of age, mean ± SD, n = 8, Vehicle 1.02 ± 0.33
Protocol: C57BL/6J mice (15-day pregnant female) were obtained from Charles River Laboratories Japan (Kanagawa, Japan). All animals used in this study were housed and cared for in accordance with the Japanese Pharmacological Society Guidelines for Animal Use. The animals were maintained in a SPF facility under controlled conditions of temperature (23±2° C.), humidity (45±10%), lighting (12-hour artificial light and dark cycles; light from 8:00 to 20:00) and air exchange. A high pressure (20±4 Pa) was maintained in the experimental room to prevent contamination of the facility. The animals were housed in polycarbonate cages KN-600 (Natsume Seisakusho, Japan) with a maximum of 4 mice per cage. Sterilized PULMASμ (Material Research Center, Japan) was used for bedding and replaced once a week. Sterilized solid HFD was provided ad libitum, being placed in the metal lid on top of the cage. Pure water was provided ad libitum from a water bottle equipped with a rubber stopper and a sipper tube. Water bottles were replaced once a week, cleaned and sterilized in autoclave and reused. Mice were identified by numbers engraved on earrings. Each cage was labeled with a specific identification code.

NASH mice [2] = assay: Serum TG in NASH mice; assay type: in vivo, C57BL/6J mice; conditions: mean±SD
Protocol: Non-fasting blood glucose was measured in whole blood using Life Check (EIDIA, Japan). For serum biochemistry, blood was collected in polypropylene tubes without anticoagulant and kept at room temperature for 30 minutes, followed by at 4° C. for 1 hour. The blood samples were then centrifuged at 1,000×g for 15 minutes at 4° C. The supernatant was collected and stored at −80° C. until use. Serum ALT and TG levels were measured by FUJI DRI-CHEM 7000 (Fujifilm, Japan).

For `C[C@H]1[C@H]2N(C(=O)CN(C)N2C(=O)NCc2ccccc2)[C@@H](Cc2ccc(OP(=O)(O)O)cc2)C(=O)N1Cc1cccc2cccnc12` [Compound A, 4-(((6S,9S,9aS)-1-(benzylcarbamoyl)-2,9-dimethyl-4,7-dioxo-8-(quinolin-8-ylmethyl)octahydro-1H-pyrazino[2,1-c][1,2,4]triazin-6-yl)methyl)phenyl dihydrogen phosphate], the “Sirius red-positive area (fibrosis area)” value (NASH mice [1]; high dose 3 mg/kg/day continuous s.c. infusion 9-13 wks, significantly decreased, 3 mg/kg/day) was 0.67±0.21%, the “Sirius red-positive area (fibrosis area)” value (NASH mice [1]; low dose 1 mg/kg/day continuous s.c. infusion 9-13 wks, no significant difference, 1 mg/kg/day) was 0.82±0.31% and the “Fibrosis (FIG. 1 legend)” value (NASH mice [1]; NASH rat model as printed in the legend, FIG. 1 shows high-dose 3 mg/kg/day versus Vehicle) was “reduces fibrosis”. The “Serum TG” value (NASH mice [2]; high dose 3 mg/kg/day s.c. infusion 9-13 wks, Vehicle 391±175, increased) was 1145 ± 580 mg/dL and the “Serum TG” value (NASH mice [2]; low dose 1 mg/kg/day s.c. infusion 9-13 wks, Vehicle 391±175, no significant difference) was 815 ± 754 mg/dL.
